According to patent publication US7662553B2, “Polymorphisms in the ERCC1 gene for predicting treatment outcome” (University of Southern California, priority 2002, dated 2010):

Key:
[1] = tested on: locally advanced rectal cancer; assay: Time to local recurrence after adjuvant pelvic irradiation plus 5-FU infusion (Example 1); type: in vivo, human
Description: Methods: Seventy-three (73) patients with locally advanced rectal cancer (UICC stage II and III) were selected. They had been previously treated with adjuvant pelvic irradiation (45 Gy) to the whole pelvis with an additional boost up to 54 Gy plus 5-FU infusion therapy following tumor resection tissue acquisition during surgery. QRT-PCR (a fluorescence-based, quantitative real-time detection method (Taqman®)) was performed on RNA extracted from formalin-fixed, paraffin-embedded, laser-capture-microdissected tissue to establish gene expression levels. The mRNA was reverse transcribed to cDNA and the genes of interest were quantified as well as an internal reference gene (β-Actin) as a control. All gene expression levels were log-transformed prior to analysis. The maximal c^2 method of Miller, Siegmund (Miller R. and Siegmund D. Biometrics (1982) 38:1011-1016) and Halpem (Halpem J. (1982) Biometrics 38:1017-1023) was used to determine which gene expression best segregated patients into poor- and good-prognosis subgroups 2000 bootstrap-like simulations were used to estimate the distribution of the maximal c^2 statistics under the null hypothesis of no association.

[2] = tested on: locally advanced rectal cancer; assay: Pelvic recurrence after 5-FU and pelvic radiation by TS promoter genotype (Example 2); type: in vivo, human; settings: pre- or post-operative 5-FU and pelvic radiation
Description: Methods: Forty-three (43) patients with locally advanced rectal cancer, who were treated with either pre-operative or post-operative 5-FU and pelvic radiation were analyzed. Genomic DNAs were extracted from paraffin-embedded tissue samples. Patients' genotype for the TS polymorphism was determined by polymerase chain reaction (PCR) amplification of TS promoter region.

SMILES	Probability ± SE of 5-yr recurrence ([1]; total patients n=73, UICC stage II and III, pelvic irradiation 45 Gy with boost up to 54 Gy plus 5-FU infusion after resection)	Median time to recurrence ([1]; total patients n=73, pelvic irradiation plus 5-FU infusion after resection) [Month]	Pelvic recurrences, patients ([2]; TS (2/2) and (2/3) genotypes) [%]	Pelvic recurrences, patients ([2]; TS (3/3) genotype) [%]	Effect on neurotoxicity in patients treated with oxaliplatin (celebrex 200-400 mg day, p<0.01)	Patients who developed grade II or III neurotoxicity (of 56 patients with celebrex therapy in combination with oxaliplatin/5-FU chemotherapy) [patients]
O=c1[nH]cc(F)c(=O)[nH]1 [5-FU, 5-fluorouracil]	0.53 ± 0.08	57.0	37	87	–	–
Cc1ccc(-c2cc(C(F)(F)F)nn2-c2ccc(S(N)(=O)=O)cc2)cc1 [celebrex]	–	–	–	–	protecting against neurotoxicity	3
